# “And” between values parts separate entries of the source, which are not always exact repeats. Equal values may be shown once. [ ]: non-standard residue; d: D form.
# Experiments:
# [1] = system: mice (PMA-induced ear edema); test: PMA-induced ear edema in mice; type: in vivo; conditions: topical 40 μg/ear, 30 min before and after PMA 5 μg/ear, 6 h
# Description: The NBD peptide was tested for its ability to inhibit inflammatory responses in animals using two distinct models of acute inflammation. In the first model, ear edema was induced in mice using phorbol-12-myristate-13-acetate (PMA) and the effects of topical administration of the NBD peptides were measured. Ear edema using PMA was induced in replicate groups of age and sex matched mice as previously described (Chang et al., (1987) Eur. J. Pharmacol. 142, 197-205). Twenty μl of either NBD peptides (200 μg/ear), dexamethasone (40 μg/ear) or vehicle (DMSO:Ethanol; 25:75 v/v) was applied topically to the right ear of mice thirty minutes before and thirty minutes after the application of 20 μl of PMA (5 μg/ear) dissolved in ethanol. Ear swelling was measured six hours after PMA application using a microgauge and expressed as the mean difference in thickness between the treated (right) and untreated (left) ears. Statistical analysis of the data was performed using the students t-test. A value of p<0.05 was considered statistically significant.
# [2] = system: mice (zymosan-induced peritonitis); test: Zymosan-induced peritonitis in mice; type: in vivo, mice (C57BL/6NCR); conditions: dexamethasone 100 mg/ml i.p. with zymosan
# Description: In a second model, peritonitis was induced in mice by intraperitoneal (i.p.) injection of zymosan either alone or in combination with dexamethasone or the NBD peptides. For zymosan-induced peritonitis, measurement of peritoneal exudates and inflammatory cell collections from replicate groups of age and sex matched mice (C57BL/6NCR) were performed as previously described (Getting et al., (1998) Immunology 95, 625-630). Groups of animals were injected concomitantly with one ml zymosan (1 mg/ml) and either dexamethasone (100 mg/ml) or the NBD peptides (200 mg/ml). The concentration of NOX (nitrate plus nitrite) present in the inflammatory exudates was measured using a colorimetric assay kit (Alexis Corporation) according to the manufacturers protocol.
# [3] = target: T1, NEMO (Homo sapiens, UniProt Q9Y6K9); test: GST pull-down of IKKβ NBD mutants by GST-NEMO; type: binding; conditions: GST pulldown assay; NBD mutations in IKKβ
# T1 construct: bacterially expressed version of full length NEMO fused at its NH2-terminus to glutathione S-transferase; made in house; host or cells: bacteria (pGEX-4T1)
# Text: To identify the NEMO-interacting domain of IKKβ we performed in vitro pull down assays (Zhong et al., (1997) Cell 89, 413-424) using a bacterially expressed version of full length NEMO fused at its NH2-terminus to glutathione S-transferase (GST-NEMO; FIG. 1A). Various truncation mutants lacking different functional domains of IKKβ (catalytic domain, leucine zipper and helix-loop-helix; FIG. 1A) were constructed.
# These mutants were labeled by in vitro translation with [^35S]-methionine (input; FIG. 1B), mixed with either GST alone or GST-NEMO, and precipitated using glutathione-agarose. […]
# Further mutations in the NBD were analyzed (see Table 1) for their ability to affect NEMO binding to IKKβ using the GST pulldown assay explained in Example 3.
# [4] = system: mice (lethal Salmonella typhimurium LPS challenge); test: Lethal lipopolysaccharide mouse model; type: in vivo, male C57BL/6 mice
# Description: In this experiment, the ability of anti-inflammatory compounds of the invention to rescue mice challenged with a lethal amount of lipopolysaccharide (LPS) was assessed. LPS is a bacterial product that induces many of the responses that are seen in septic patients, including death. In this model, Salmonella typhimurium LPS in phosphate-buffered […] (PBS) was administered to male C57BL/6 mice by intravenous injection at a dose of 30 mg/kg (600 μg/20 g mouse). This dose was established in control experiments to be lethal in 100% of the mice that received it. Mice were treated with the test peptide by intravenous injection (in 1% dimethyl sulfoxide in PBS) immediately prior to the LPS injection and 24 hours after the LPS injection. Mice were monitored twice daily for up to 8 days after receiving LPS and the duration of survival and the number of surviving mice were recorded.
# [5] = system: mice (Concanavalin A-induced hepatitis); test: Concanavalin A-induced hepatitis in mice; type: in vivo, male C57BL/6 mice; conditions: for ALT / AST: serum 18-24 h, mean±SEM
# Description: Forty male C57BL/6 mice weighing between 18 g and 22 g were divided into five treatment groups of eight mice each as shown below.
# The mice were placed in a restrainer and injected intravenously (i.v.) in the tail with a test peptide or vehicle in 1% DMSO in PBS. The mice were then immediately injected i.v. with 15 mg/kg of concanavalin A dissolved in sterile PBS. The injection volume was 5 ml/kg (100 μI/20 g mouse) with a concanavalin A concentration of 3.0 mg/ml. The next morning (18-24 hours later), these mice were euthanized by CO2 inhalation and blood was collected by cardiac puncture. The serum was then separated and analyzed for AST and ALT.
# ALT and AST values are given as Sigma-Frankel units/ml, mean±SEM.
# [6] = dose 1 mg/kg i.v., number dosed 8, LPS 30 mg/kg i.v.
# [7] = dose 5 mg/kg i.v., number dosed 8, LPS 30 mg/kg i.v.
# [8] = dose 5 mg/kg i.v., number dosed 7, LPS 30 mg/kg i.v.
# [9] = concanavalin A 15 mg/kg i.v. + 0.5 mg/kg i.v.
# [10] = concanavalin A 15 mg/kg i.v. + 1 mg/kg i.v.
# [11] = concanavalin A 15 mg/kg i.v. + 5 mg/kg i.v.
# T1 sequence (Q9Y6K9 whole entry, the tested form may be a part): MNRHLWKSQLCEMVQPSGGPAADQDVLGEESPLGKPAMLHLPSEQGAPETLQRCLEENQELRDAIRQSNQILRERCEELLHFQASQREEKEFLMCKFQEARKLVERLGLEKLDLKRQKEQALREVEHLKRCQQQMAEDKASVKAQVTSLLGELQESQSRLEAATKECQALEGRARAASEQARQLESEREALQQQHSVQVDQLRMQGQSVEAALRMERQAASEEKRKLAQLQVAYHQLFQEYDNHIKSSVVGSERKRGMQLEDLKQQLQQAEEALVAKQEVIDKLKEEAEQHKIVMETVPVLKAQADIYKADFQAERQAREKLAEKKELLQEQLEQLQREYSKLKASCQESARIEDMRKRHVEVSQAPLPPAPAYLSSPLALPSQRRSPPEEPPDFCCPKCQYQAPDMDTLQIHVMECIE
Compound,Binds to NEMO [3],"survival (day five), number of mice surviving [4, 7]",further results
C[C@@H]1C[C@H]2[C@@H]3CCC4=CC(=O)C=C[C@]4(C)[C@@]3(F)[C@@H](O)C[C@]2(C)[C@@]1(O)C(=O)CO [dexamethasone],,,inhibition of PMA-induced ear thickening [1]: 82%; reduction of NOX in peritoneal exudates [2]: 86±7%
ADWSWL,yes,,
H-RRMKWKKLDWSWL-NH2 [compound 6],,7 and 5 and 4 and 8,"survival (day five), number of mice surviving [4, 6]: 0"
H-RRMKWKKTALDWSWLQTE-NH2 [compound 1],,,"survival (day five), number of mice surviving [4, 8]: 1"
H-YARAARRAARRLDWSWL-NH2 [compound 9],,6 and 8,"survival (day five), number of mice surviving [4, 6]: 0"
H-YARAARRAARRTALDWSWLQTE-NH2 [compound 5],,,"survival (day five), number of mice surviving [4, 6]: 4"
H-YARKARRQARRTALDWSWLQTE-NH2 [compound 4],,0,
H-YGRKKRRQRRRLDWSWL-NH2 [compound 11],,6,
H-YGRKKRRQRRRTALDWSWLQTE-NH2 [compound 2],,4,"survival (day five), number of mice surviving [4, 8]: 7"
H-rrmkwkkLDWSWL-NH2 (H-[dR][dR][dM][dK][dW][dK][dK]LDWSWL-NH2; SMILES CSCC[C@@H](NC(=O)[C@@H](CCCNC(=N)N)NC(=O)[C@H](N)CCCNC(=N)N)C(=O)N[C@H](CCCCN)C(=O)N[C@H](Cc1c[nH]c2ccccc12)C(=O)N[C@H](CCCCN)C(=O)N[C@H](CCCCN)C(=O)N[C@@H](CC(C)C)C(=O)N[C@@H](CC(=O)O)C(=O)N[C@@H](Cc1c[nH]c2ccccc12)C(=O)N[C@@H](CO)C(=O)N[C@@H](Cc1c[nH]c2ccccc12)C(=O)N[C@@H](CC(C)C)C(N)=O) [compound 7],,8,
H-rrrrrrrLDWSWL-NH2 (H-[dR][dR][dR][dR][dR][dR][dR]LDWSWL-NH2; SMILES CC(C)C[C@H](NC(=O)[C@H](Cc1c[nH]c2ccccc12)NC(=O)[C@H](CO)NC(=O)[C@H](Cc1c[nH]c2ccccc12)NC(=O)[C@H](CC(=O)O)NC(=O)[C@H](CC(C)C)NC(=O)[C@@H](CCCNC(=N)N)NC(=O)[C@@H](CCCNC(=N)N)NC(=O)[C@@H](CCCNC(=N)N)NC(=O)[C@@H](CCCNC(=N)N)NC(=O)[C@@H](CCCNC(=N)N)NC(=O)[C@@H](CCCNC(=N)N)NC(=O)[C@H](N)CCCNC(=N)N)C(N)=O) [compound 8],,7 and 8,"survival (day five), number of mice surviving [4, 6]: 0"
H-rrrrrrrTALDWSWLQTE-NH2 (H-[dR][dR][dR][dR][dR][dR][dR]TALDWSWLQTE-NH2; SMILES CC(C)C[C@H](NC(=O)[C@H](C)NC(=O)[C@@H](NC(=O)[C@@H](CCCNC(=N)N)NC(=O)[C@@H](CCCNC(=N)N)NC(=O)[C@@H](CCCNC(=N)N)NC(=O)[C@@H](CCCNC(=N)N)NC(=O)[C@@H](CCCNC(=N)N)NC(=O)[C@@H](CCCNC(=N)N)NC(=O)[C@H](N)CCCNC(=N)N)[C@@H](C)O)C(=O)N[C@@H](CC(=O)O)C(=O)N[C@@H](Cc1c[nH]c2ccccc12)C(=O)N[C@@H](CO)C(=O)N[C@@H](Cc1c[nH]c2ccccc12)C(=O)N[C@@H](CC(C)C)C(=O)N[C@@H](CCC(N)=O)C(=O)N[C@H](C(=O)N[C@@H](CCC(=O)O)C(N)=O)[C@@H](C)O) [compound 3],,5 and 8,"survival (day five), number of mice surviving [4, 8]: 7"
H-yaraarraarrLDWSWL-NH2 (H-[dY][dA][dR][dA][dA][dR][dR][dA][dA][dR][dR]LDWSWL-NH2; SMILES CC(C)C[C@H](NC(=O)[C@H](Cc1c[nH]c2ccccc12)NC(=O)[C@H](CO)NC(=O)[C@H](Cc1c[nH]c2ccccc12)NC(=O)[C@H](CC(=O)O)NC(=O)[C@H](CC(C)C)NC(=O)[C@@H](CCCNC(=N)N)NC(=O)[C@@H](CCCNC(=N)N)NC(=O)[C@@H](C)NC(=O)[C@@H](C)NC(=O)[C@@H](CCCNC(=N)N)NC(=O)[C@@H](CCCNC(=N)N)NC(=O)[C@@H](C)NC(=O)[C@@H](C)NC(=O)[C@@H](CCCNC(=N)N)NC(=O)[C@@H](C)NC(=O)[C@H](N)Cc1ccc(O)cc1)C(N)=O) [compound 10],,8 and 6,"survival (day five), number of mice surviving [4, 6]: 5; liver injury by concanavalin A, gross pathology ([5]; 5 mg/kg): prevented; protection against concanavalin A-induced liver damage ([5]; 5 mg/kg): able to protect; ALT [5, 9]: 1919 ± 234 Sigma-Frankel units/ml; AST [5, 9]: 1217 ± 192 Sigma-Frankel units/ml; ALT [5, 10]: 1910 ± 281 Sigma-Frankel units/ml; AST [5, 10]: 1264 ± 270 Sigma-Frankel units/ml; ALT [5, 11]: 72 ± 19 Sigma-Frankel units/ml; AST [5, 11]: 99 ± 14 Sigma-Frankel units/ml"
LAWSWL (Description of Artificial Sequence: Synthetic NBD peptide),no,,
LDASAL (Description of Artificial Sequence: Synthetic NBD peptide),no,,
LDASWL (Description of Artificial Sequence: Synthetic NBD peptide),no,,
LDFSWL,yes,,
LDWAWL,yes,,
LDWEWL (Description of Artificial Sequence: Synthetic NBD peptide),yes,,
LDWSAL (Description of Artificial Sequence: Synthetic NBD peptide),no,,
LDWSFL (Description of Artificial Sequence: Synthetic NBD peptide),yes,,
LDWSWA (Description of Artificial Sequence: Synthetic NBD peptide),yes,,
LDWSWL (Description of Artificial Sequence: Synthetic NBD peptide),yes,,
LDWSYL (Description of Artificial Sequence: Synthetic NBD peptide),no,,
LDYSWL (Description of Artificial Sequence: Synthetic NBD peptide),yes,,
LEWSWL (Description of Artificial Sequence: Synthetic NBD peptide),yes,,
LNWSWL (Description of Artificial Sequence: Synthetic NBD peptide),yes,,

# From US8242240B2, “Anti-inflammatory compounds and uses thereof” (Yale University, priority 2000, dated 2012)
